Laboratory results published in patent US8044098B2, “Use of hydroxybenzoic acids and their esters and analogues for preventing or treating virus infection” (Shenghua Guangzhou Pharmaceutical Science & Technology Co., …, priority 2005, dated 2011).

How the values were obtained:
HPV 6/11 = test: Drug screening by quantitative fluorescent PCR analysis of HPV 6/11 in condyloma acuminata homogenate; set-up: species or system human papillomavirus (HPV); conditions: for HPV 6/11 Virus (copies/ml): 50 μl 10% micro emulsion + 50 μl HPV sample homogenate, 37° C., 24 hours, saline control 1.45 × 10^6; for HPV 6/11 detected by FQ-PCR (in words): 24 hours after adding the test compound
HPV 16/18 = test: Drug screening by quantitative fluorescent PCR analysis of HPV 16/18 in condyloma acuminata homogenate; set-up: species or system human papillomavirus (HPV); conditions: for HPV 16/18 Virus (copies/ml): 50 μl 10% micro emulsion + 50 μl HPV sample homogenate, 37° C., 24 hours, saline control 1.40 × 10^5; for HPV 16/18 detected by FQ-PCR (in words): 24 hours after adding the test compound
[1] = tested on: secretion of HBsAg by 2.2.15 cells; test: Inhibition of secretion of HBsAg by Hepatitis B 2.2.15 cell line; type: cell-based, HBV; conditions: 1 μmol/ml; for HBsAg Inhibition rate: 2.2.15 cells, supernatant collected three days later
Text: (§1) Hepatitis B 2.2.15 cell line was transfected by HBV DNA (purchased from Institute of Biochemistry and Cell Biology of Shanghai Institute for Biological Sciences or the National Center for Drug Screening) and used as the cell model for screening anti-HBV drug compounds (See Chinese Journal Of Integrated Traditional and Western Medicine on Liver Diseases, 2004, 14(3): 158). The cell culture medium DMEM (GIBCO Company), bovine serum (Hangzhou Siji Qing Biochemical Manufacturer), G418 (GIBCO Company), 3-(4,5-dimethylthiazol-2-yl)-2,5-diphenyltetrazoliumbromide (Sigma), HBsAg and HBeAg diagnostic kit (Shanghai Kehua Bio-engineering Co., Ltd).
(§2) The test compounds listed in Table 3 below were dissolved in a mixture containing 20 ml 1,2-propylene glycol and 15 ml Tween-80 and diluted with sterile saline water to 2 μmol/ml of the test compound. Then it was mixed with the cell culture medium at equal volume to obtain a solution containing 1 μmol/ml of the tested compound. Cells at the concentration of 1×10^5 cells per milliliter were inoculated to a 24-well plate at 1 ml/well. Supernatant from the cell culture mixture was collected three days later for testing.

[2] = tested on: secretion of HBeAg by 2.2.15 cells; test: Inhibition of secretion of HBeAg by Hepatitis B 2.2.15 cell line; type: cell-based, HBV; conditions: 1 μmol/ml; for HBeAg Inhibition Rate: 2.2.15 cells, supernatant collected three days later
Text: as §1, §2

condyloma acuminata = test: Clinical use in treating condyloma acuminata; type: in vivo, human; conditions: for treatment effect compared to recombinant human interferon α-2β gel: condyloma acuminata patients, 10% micro emulsion; for Recovered, 1-4 days: number of patients (50 patients in five groups), 10% micro emulsion on affected areas three times a day; for Obvious Effect, 1-4 days / Obvious Effect, 5-8 days: more than 70% of the skin lesions disappeared; for Improved: more than 30% of the skin lesions disappeared
Text: Soft hyperplasia with nipple or cauliflower shaped or other shaped warts were found around the skin of the cunnus or anus. The result from 5% acetate acid white test was positive.
Patients selected for the clinical observation must meet the above standards. Plus the diameter of their skin lesions should equal to or be less than 1 cm. […] Patients who had vaginal yeast, trichomonas, bacteria infection or other complications, chronic diseases, serious liver or kidney diseases or women in pregnancy or lactation were not selected. Treatments to women would not be conducted in their menstrual periods.
50 qualified patients were selected and randomly divided into five groups to be tested with p-hydroxybenzoic acid, gallic acid, ethyl p-hydroxybenzoate, propyl gallate and recombinant human interferon α-2β gel, respectively. The samples of p-hydroxybenzoic acid, gallic acid, ethyl p-hydroxybenzoate and propyl gallate were prepared as described in Example 1. The patients were treated with the test sample to the affected areas three times a day, in the morning, at noon and night. The samples were applied to cover the warts and the patients were required to leave the treated areas exposed and not to move for 20 minutes.
Observation time: 8 days. Patients not cured after 8 days would continue to use the test samples for another 12 weeks, and their prognosis was followed during the 12-week period.
Observed items: the location, shape, size and number of warts were carefully observed and recorded before the treatment.
“Recovered”: all skin lesions had disappeared;
“Obvious Effect”: more than 70% of the skin lesions had disappeared;
“Improved”: more than 30% of the skin lesions had disappeared;
“Not Effective”: less than 30% of the skin lesions had disappeared or the original skin lesions didn't change or even enlarged.

HSV infection = test: External treatment of HSV infection in clinical tests; type: in vivo, human; conditions: patients with HSV infection, applied on affected areas three times a day
Text: Twenty-two patients who were clinically diagnosed with HSV infection were randomly selected and divided into two groups. Acyclovir ointment and micro emulsion containing propyl gallate prepared as described in Example 1 were applied to the two groups, respectively, on the affected areas of the patients three times a day.

[3] = type: physicochemical
Experimental: 20 ml 1,2-propylene glycol, 15 ml Tween-80 and 5 ml azone were mixed together and sterile distilled water was added to bring the volume to 100 ml. The pH value of the solution was adjusted to pH 6.8 with NaOH or HCl to obtain a micro emulsion. 10 g propyl gallate and 10 g gallic acid were dissolved in the micro emulsion, respectively, and mixed well. 10 ml of each micro emulsion was added to a capped transparent glass tube. Both solutions were colorless. The absorbance of the two solutions at 400˜500 nm was measured with spectrophotometry and their absorbance was under 0.15. […] Measured by spectrophotometry again, the absorbance of the gallic acid solution was 1.2 and that of the propyl gallate solution was 0.4.

[4] = number of patients, observation 8 days

| SMILES | HPV 6/11 Virus (copies/ml) (HPV 6/11) | HPV 6/11 detected by FQ-PCR (in words) (HPV 6/11) | HPV 16/18 Virus (copies/ml) (HPV 16/18) | HPV 16/18 detected by FQ-PCR (in words) (HPV 16/18) | other results |
| --- | --- | --- | --- | --- | --- |
| O=C(O)c1ccc(O)c(O)c1O [2,3,4-trihydroxybenzoic acid] | 0 copies/ml | no HPV 6/11 or HPV 16/18 was detected | 0 copies/ml | no HPV 6/11 or HPV 16/18 was detected |  |
| O=C(O)c1cccc(O)c1O [2,3-dihydroxybenzoic acid] | 2.30 × 10^4 copies/ml |  | 3.20 × 10^3 copies/ml |  |  |
| O=C(O)c1ccc(O)cc1O [2,4-dihydroxybenzoic acid] | 1.60 × 10^4 copies/ml |  | 4.60 × 10^3 copies/ml |  |  |
| O=C(O)c1ccc(O)c(O)c1 [3,4-dihydroxybenzoic acid] | 1.90 × 10^4 copies/ml |  | 8.50 × 10^4 copies/ml |  | effect on the secretion of HBsAg by the 2.2.15 cells (in words) [1]: had inhibition effect; HBsAg Inhibition rate [1]: 9.81%; effect on the secretion of HBeAg by the 2.2.15 cells (in words) [2]: had inhibition effect; HBeAg Inhibition Rate [2]: 8.92% |
| O=C(O)c1cc(Cl)c(O)c(Cl)c1 [3,5-dicloro-4-hydroxybenzoic acid] | 2.30 × 10^3 copies/ml |  | 2.60 × 10^4 copies/ml |  |  |
| O=C(O)c1ccc(O)c(Br)c1 [3-bromo-4-hydroxybenzoic acid] | 3.40 × 10^3 copies/ml |  | 5.00 × 10^4 copies/ml |  |  |
| O=C(O)c1ccccc1 [Benzoic acid, benzoic acid] | 3.60 × 10^5 copies/ml |  | 2.90 × 10^4 copies/ml |  |  |
| CCOC(=O)c1ccc(O)c(O)c1 [Ethyl 3,4-dihydroxybenzoate] |  |  |  |  | effect on the secretion of HBsAg by the 2.2.15 cells (in words) [1]: had inhibition effect; inhibition of HBsAg secretion compared with gallic acid and 3,4-dihydroxybenzoic acid [1]: more effective; HBsAg Inhibition rate [1]: 14.20%; effect on the secretion of HBeAg by the 2.2.15 cells (in words) [2]: had inhibition effect; inhibition of HBeAg secretion compared with gallic acid and 3,4-dihydroxybenzoic acid [2]: more effective; HBeAg Inhibition Rate [2]: 6.04% |
| CCOC(=O)c1cc(O)c(O)c(O)c1 [Ethyl gallate] | 0 copies/ml | no HPV 6/11 or HPV 16/18 was detected | 0 copies/ml | no HPV 6/11 or HPV 16/18 was detected |  |
| CCOC(=O)c1ccc(O)cc1 [Ethyl p-hydroxybenzoate] | 8.50 × 10^4 copies/ml |  | 0 copies/ml | not detected | treatment effect compared to recombinant human interferon α-2β gel (condyloma acuminata): more apparent treatment effect; Recovered, 1-4 days (condyloma acuminata; all skin lesions disappeared): 6; Recovered, 5-8 days (condyloma acuminata; number of patients, 10% micro emulsion three times a day, all skin lesions disappeared): 2; Obvious Effect, 1-4 days (condyloma acuminata; number of patients): 2 |
| O=C(O)c1cc(O)c(O)c(O)c1 [Gallic acid] | 0 copies/ml | no HPV 6/11 or HPV 16/18 was detected | 0 copies/ml | no HPV 6/11 or HPV 16/18 was detected | treatment effect compared to recombinant human interferon α-2β gel (condyloma acuminata): more apparent treatment effect; Recovered, 1-4 days (condyloma acuminata; all skin lesions disappeared): 2; Improved (condyloma acuminata; [4]): 4; Obvious Effect, 1-4 days (condyloma acuminata; number of patients): 3; Obvious Effect, 5-8 days (condyloma acuminata; number of patients): 1; effect on the secretion of HBsAg by the 2.2.15 cells (in words) [1]: had inhibition effect; HBsAg Inhibition rate [1]: 8.83%; effect on the secretion of HBeAg by the 2.2.15 cells (in words) [2]: had inhibition effect; HBeAg Inhibition Rate [2]: 9.40%; average time for recovery (HSV infection): 3 days; colour of solution, initial ([3]; micro emulsion pH 6.8, freshly prepared): colorless; absorbance after 30 days ([3]; micro emulsion pH 6.8, kept at room temperature for 30 days, 400˜500 nm): 1.2; colour of solution after 30 days ([3]; micro emulsion pH 6.8, room temperature for 30 days): light brown |
| COC(=O)c1ccc(O)c(O)c1O [Methyl 2,3,4-trihydroxybenzoate] | 0 copies/ml | no HPV 6/11 or HPV 16/18 was detected | 0 copies/ml | no HPV 6/11 or HPV 16/18 was detected |  |
| COC(=O)c1cccc(O)c1O [Methyl 2,3-dihydroxybenzoate] | 3.00 × 10^4 copies/ml |  | 4.20 × 10^2 copies/ml |  |  |
| COC(=O)c1ccc(O)cc1O [Methyl 2,4-dihydroxybenzoate] | 5.20 × 10^4 copies/ml |  | 2.50 × 10^2 copies/ml |  |  |
| COC(=O)c1ccc(O)c(O)c1 [Methyl 3,4-dihydroxybenzoate] | 8.50 × 10^4 copies/ml |  | 6.00 × 10^2 copies/ml |  |  |
| COC(=O)c1cc(O)c(O)c(O)c1 [Methyl gallate] | 0 copies/ml | no HPV 6/11 or HPV 16/18 was detected | 0 copies/ml | no HPV 6/11 or HPV 16/18 was detected |  |
| CCCCCCCCOC(=O)c1cccc(O)c1O [Octyl 2,3-dihydroxybenzoate] | 2.20 × 10^2 copies/ml |  | 1.50 × 10^2 copies/ml |  |  |
| CCCCCCCCOC(=O)c1cc(O)c(O)c(O)c1 [Octyl gallate] | 0 copies/ml | no HPV 6/11 or HPV 16/18 was detected | 0 copies/ml | no HPV 6/11 or HPV 16/18 was detected |  |
| CCCOC(=O)c1ccc(O)c(O)c1O [Propyl 2,3,4-trihydroxybenzoate] | 0 copies/ml | no HPV 6/11 or HPV 16/18 was detected | 0 copies/ml | no HPV 6/11 or HPV 16/18 was detected |  |
| O=C(O)c1ccccc1O [Salicylic acid, salicylic acid, reference compound] | 5.50 × 10^5 copies/ml |  | 2.60 × 10^4 copies/ml |  |  |
| CCCCCCCCCCCCOC(=O)c1cc(O)c(O)c(O)c1 [dodecyl gallate, Dodecyl gallate] | 6.70 × 10^4 copies/ml |  | 4.90 × 10^4 copies/ml |  |  |
| O=C(O)c1ccc(O)cc1 [p-hydroxybenzoic acid] | 7.00 × 10^5 copies/ml |  | 1.30 × 10^3 copies/ml |  | treatment effect compared to recombinant human interferon α-2β gel (condyloma acuminata): more apparent treatment effect; Not Effective (condyloma acuminata; number of patients, less than 30% of the skin lesions disappeared, observation 8 days): 3; Improved (condyloma acuminata; [4]): 2; Obvious Effect, 5-8 days (condyloma acuminata; number of patients): 5 |
